# Measurements reported in patent US20240226049A1, “METHODS OF TREATMENT USING BEMPEDOIC ACID” (Esperion Therapeutics, Inc., priority 2023, published 2024).
# Legend:
# [1] = test system: primary prevention patients unable to tolerate recommended doses of statins; test: CLEAR OUTCOMES primary prevention subgroup (Example 2): investigator-reported adverse events and safety laboratory findings; format: in vivo
# Protocol: (§1) The rationale, design and methods of the CLEAR Outcomes trial is described in Example 1. The trial was conducted at 1250 sites in 32 countries and designed by the Cleveland Clinic Coordinating Center for Clinical Research (C5Research) and an academic Executive Committee in collaboration with the sponsor. The protocol was approved by ethics committees at participating sites and all patients provided written informed consent before enrollment. A contract research organization collected the data which were transferred to C5Research at completion of the trial whose statisticians conducted the analyses described herein. An independent Data Monitoring Committee monitored the trial.
# (§2) Primary prevention patients 18 to 85 years of age with an LDL cholesterol ≥100 mg/dL with clinical features placing them at high risk for a first cardiovascular event were eligible. Criteria for high cardiovascular risk included risk scores, such as the Reynolds Risk Score and the SCORE project (Ridker et al., Development and validation of improved algorithms for the assessment of global cardiovascular risk in women: the Reynolds Risk Score, JAMA. 2007 Feb. 14; 297(6):611-9; Ridker et al., C-reactive protein and parental history improve global cardiovascular risk prediction. The Reynolds Risk Score for men, Circulation. 2008; 118: 2243-2251; European Guidelines on CVD Prevention in Clinical Practice. 2016. Eur J Prev Cardiol. 2016 July; 23(11):NP1-NP96), a coronary artery calcium score >400 Agatston units (AU) or presence of either type 1 or 2 diabetes in women aged >65 years or men older than 60 years.
# (§3) Investigators were responsible for assessing the patient for statin intolerance. Patients had to report statin intolerance due to an adverse effect that started or increased during statin therapy and resolved or improved after statin therapy was discontinued. Entry criteria required inability to tolerate 2 or more statins at any dose or 1 statin and unwillingness to attempt a second statin or advised by a physician not to attempt taking a second statin. Both the patient and site investigator were required to provide written confirmation that the patient was statin intolerant and aware of the benefits of statins to reduce the risk of cardiovascular events, including death, and acknowledge that many patients who are unable to tolerate a statin can tolerate a different statin or dose. Patients could be enrolled if they tolerated a very low average daily statin dose defined as rosuvastatin <5 mg, atorvastatin <10 mg, simvastatin <10 mg, lovastatin <20 mg, pravastatin <40 mg, fluvastatin <40 mg, or pitavastatin <2 mg. Other background lipid-lowering therapies were permitted, including ezetimibe, niacin, bile acid resins, fibrates, and/or proprotein convertase subtilisin kexin type 9 (PCSK9) inhibitors.
# (§4) Eligible patients entered a 4-week run-in period during which patients were treated with single-blind placebo. If patients were intolerant to placebo treatment or if adherence was <80% by tablet count, they were not eligible for randomization. Patients who successfully completed the run-in period were randomly assigned in a 1:1 ratio to receive a 180 mg oral dose of bempedoic acid or matching placebo, administered daily. During the trial, LDL cholesterol and hsCRP results were masked. Beginning 6 months after randomization, the central laboratory notified the investigator, who remained blinded to treatment assignment, if the patient's LDL cholesterol level was ≥25% higher than baseline. Repeat testing was performed after the patient was counseled about diet and encouraged to take all medications as prescribed. The patient returned for a repeat fasting blood lipid profile to confirm whether the LDL cholesterol value exceeded the threshold criteria. If confirmed, the patient's treatment regimen for LDL cholesterol lowering could be adjusted, per standard of care and local practice. […]
# [2] = test system: primary prevention patients unable to tolerate recommended doses of statins; test: CLEAR OUTCOMES primary prevention subgroup (Example 2): effects on LDL cholesterol and hsCRP; format: in vivo, human
# Protocol: as §1, §2, §3, §4
# [3] = primary prevention safety population
# [4] = primary prevention safety population, N = 2104
# [5] = primary prevention, after 6 months
# [6] = primary prevention, after 12 months
# [7] = primary prevention subgroup, vs placebo
# [8] = primary prevention, after 12 months treatment
# [9] = primary prevention, baseline mean 142.2 mg/dL
smiles,measurement,setting,value
"CC(C)(CCCCCC(O)CCCCCC(C)(C)C(=O)O)C(=O)O [Bempedoic Acid, Bempedoic acid]","New onset diabetes in patients with pre-diabetes at baseline, %",[1]; [3],(8.4) %
same,"New onset diabetes in patients without diabetes at baseline, %",[1]; [3],(6.4) %
same,"Adjudicated tendon rupture, %",[1]; [4],1.4%
same,"Adverse event leading to drug discontinuation, %",[1]; [4],9.9%
same,"Any treatment emergent adverse event, %",[1]; [4],84.8%
same,"Atrial fibrillation, %",[1]; [4],2.5%
same,"Cholelithiasis, %",[1]; [4],2.5%
same,"Discontinuation of treatment due to myalgia, %",[1]; [4],1.4%
same,"Elevated hepatic enzymes, %",[1]; [4],4.5%
same,"Gout, %",[1]; [4],2.6%
same,"Hyperuricemia, %",[1]; [4],12.1%
same,"Hypoglycemia, %",[1]; [4],4.9%
same,"Malignancies, %",[1]; [4],4.0%
same,"Muscular disorders, %",[1]; [4],12.8%
same,"Myalgias, %",[1]; [4],4.2%
same,"Neurocognitive disorders, %",[1]; [4],0.4%
same,"Renal impairment, %",[1]; [4],10.3%
same,"Serious treatment emergent adverse event, %",[1]; [4],19.9%
same,"Tendinopathies, %",[1]; [4],1.8%
same,"Change from baseline in creatinine levels, mean (SD)",[1]; [5],0.05 (0.19) mg/dL
same,"Change from baseline in uric acid level, mean (SD)",[1]; [5],0.80 (1.1)^ mg/dL
same,"Patients with creatinine >1.5 mg/dL, %",[1]; [5],(3.3%)
same,"Patients with uric acid level >8.5 mg/dL, %",[1]; [5],(10.8%)
same,"Change from baseline in glycated hemoglobin level (%), patients with diabetes at baseline",[1]; [6],0.03(0.96) %
same,"Change from baseline in glycated hemoglobin level (%), patients without diabetes at baseline",[1]; [6],0.02(0.26) %
same,Change from baseline in glycated hemoglobin level (%),"[1]; primary prevention, after 12 months, not a prespecified safety measure",0.03 (0.79) %
same,"Aspartate aminotransferase level >3 times ULN, %","[1]; primary prevention, at any visit",3.5%
same,"Creatine kinase levels >10x ULN (single occurrence), %","[1]; primary prevention, at any visit, N = 2104",0.2%
same,"Alanine aminotransferase level >3 times ULN, %","[1]; primary prevention, at any visit, repeated and confirmed",2.1%
same,"Worsening hyperglycemia, %","[1]; primary prevention, in patients with diabetes at baseline",(21.6) %
same,time-averaged difference in LDL cholesterol over the course of the trial,[2]; [7],23.2 mg/dL
same,"time-averaged difference in LDL cholesterol over the duration of the trial, percent",[2]; [7],16.3%
same,difference in hsCRP reduction compared with placebo,[2]; [8],0.56 mg/L
same,"difference in hsCRP reduction compared with placebo, percent",[2]; [8],21.5%
same,"LS mean difference in LDL cholesterol compared with placebo after 6 months, percent",[2]; [9],21.3%
same,LS mean reduction in LDL cholesterol compared with placebo after 6 months of treatment,[2]; [9],30.2 mg/dL
same,reduction of hsCRP after 12 months treatment,"[2]; primary prevention, median baseline 2.4 mg/L, bempedoic acid group",0.34 mg/L
